Data: paper PMC10259451 (Journal of Medicinal Chemistry, 2023)
pEC50: −log10 of the molar value. Values after ≈ are worked out from the molar mass of the structure shown. Values belong to the molecule of their own block, whether it stands above or below them.

Columns and labels:
L. mexicana [1] = settings: administered orally; cited from earlier work
[2] = system: L. mexicana intracellular amastigotes; type: cell-based, Leishmania mexicana
[3] = Kinetic aqueous solubility; type: physicochemical; settings: pH 7.4, Sol. (aqueous solubility)
L. mexicana [4] = assay: Murine model of cutaneous leishmaniasis, footpad lesion size; type: in vivo, BALB/c mice; settings: PO 50mg/kg/day for 10 days; p < 0.0001, Mann–Whitney

Compound: Cc1ccc(-c2nc3ccccc3s2)cc1NC(=O)c1cc([N+](=O)[O-])c(N2CCN(C)CC2)cc1Cl [compound 4]
efficacy in murine model of cutaneous leishmaniasis (L. mexicana [1]): less efficacious than the positive control, miltefosine

Compound: Cc1ccc(-c2nc3ccccc3s2)cc1NC(=O)c1ccc(F)c([N+](=O)[O-])c1 [compound 10]
antileishmanial activity in words ([2]; L. mexicana amastigotes): active

solubility [3]: ~9 µM (≈ 3.11 µg/mL)
Compound: O=C(Nc1cccc(-c2ncco2)c1)c1cc([N+](=O)[O-])c(F)cc1F [compound 71]

pEC50 ([2]; Leishmania mexicana, J774.A1, read-out: L. mexicana EC50, intracellular amastigotes in J774A.1 macrophages, mean ± SD, at least three experiments): 6.18
Compound: O=C(Nc1ccc(Cl)c(Cl)c1)c1ccc(N2CCNCC2)c([N+](=O)[O-])c1 [compound 79]
lesion size vs vehicle (L. mexicana [4]): significantly smaller lesions at weeks 4 and 5
